From publication PMC9045243, “Gluconate Kinase Is Required for Gluconate Assimilation and Sporulation in Cryptococcus neoformans” (Microbiology Spectrum, 2022)

Assays:
[1] = target: T1, CnGnk1 (Gnk1, Gnk1p; formerly IRK3) (Cryptococcus neoformans, UniProt J9VGW6); assay: 6PGDH-coupled NADPH absorbance at […] nm; assay type: biochemical; details: 1 mM MgCl2, 500 uM NADP+, pH 7.5, 37 C
T1 construct: gene CNAG_03048
T1 sequence (J9VGW6 1-230): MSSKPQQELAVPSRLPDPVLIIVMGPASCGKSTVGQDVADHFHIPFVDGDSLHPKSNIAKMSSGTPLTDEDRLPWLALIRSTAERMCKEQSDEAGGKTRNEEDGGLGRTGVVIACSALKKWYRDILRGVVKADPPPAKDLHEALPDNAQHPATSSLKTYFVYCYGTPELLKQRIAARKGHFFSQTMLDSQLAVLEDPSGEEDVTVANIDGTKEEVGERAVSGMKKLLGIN

[2] = target: T1, CnGnk1 (Gnk1, Gnk1p; formerly IRK3); assay: competition against gluconate, 6PGDH-coupled NADPH absorbance at […] nm; assay type: biochemical; details: 0.5 mM gluconate, competing sugar 10 mM

Compound	% reduction in activity at 10 mM [2]	other results
Nc1ncnc2c1ncn2[C@@H]1O[C@H](COP(=O)(O)OP(=O)(O)OP(=O)(O)O)[C@@H](O)[C@H]1O [ATP]		KM (apparent) ([1]; 10 mM gluconate): 2.6, 95% CI (1.9, 3.7) mM
OC[C@H]1OC(O)[C@H](O)[C@@H](O)[C@H]1O (some centres unmarked) [galactose]	~ 20%	
O=C(O)[C@H](O)[C@@H](O)[C@H](O)[C@H](O)CO [gluconate]		KM (apparent) ([1]; 10 mM ATP): 3.7, 95% CI (2.7, 5.2) mM
OC[C@H]1OC(O)[C@H](O)[C@@H](O)[C@@H]1O (some centres unmarked) [glucose]	~ 40%	
OC[C@@H](O)[C@@H](O)[C@H](O)[C@H](O)CO [mannitol]	~ 20%	
